Source: patent publication US9296694B2, “Azacyclic compounds” (ACADIA Pharmaceuticals Inc., priority 2000, dated 2016)
Entries after “also recorded” stand apart in the source; their conditions may differ. Where a name gives a salt, the structure may show the parent alone.

Experiments:
[1] = tested on: locomotor activity of mice (dizocilpine- or d-amphetamine-induced hyperactivity, spontaneous activity); experiment: Locomotor activity in mice; assay type: in vivo; settings: for distance traveled (average): i.p., 15 min
Excerpt: (§1) Instruments) were used for rat experiments (details on startle apparatus and measures, see Male Non-Swiss Albino mice and male Sprague-Dawley rats (Harlan Sprague-Dawley) were housed (4 mice/cage; 2 rats/cage) in rooms with temperature and humidity controlled and water and food (Harlan Teklad) freely available. Mice were kept on a 12-hr light:dark cycle, whereas rats were kept on a 12-hr reverse light:dark cycle. For locomotor and observation experiments in mice, plastic 20×20×30 cm activity cages were equipped with photocell beams (AccuScan Instruments). Startle chambers (San Diego Instruments) were used for rat experiments (for details on startle apparatus and measures, see Mansbach et al., (1988) Psychopharmacology 94:507-14).
For hyperactivity experiments, mice were treated with 0.3 mg/kg dizocilpine or 3.0 mg/kg d-amphetamine i.p. 15 min before the session. Five minutes after the pretreatment, mice were treated with AC-90179 s.c. and placed into the activity cages. For spontaneous activity, AC-90179 was administered alone. Locomotor data were collected during a 15 min session without habituation in a lit room. Each dose combination was tested in a separate group of animals (n=8). Distance traveled (cm) was calculated and averaged followed by ANOVA and post-hoc Dunnett's t-test comparisons.

5-HT2A receptor = biological target: T1, 5-HT2A receptor (Homo sapiens, UniProt P28223); experiment: Receptor Selection and Amplification (R-SAT) assay, 5-HT2A inverse agonism; assay type: cell-based; settings: for Percent Efficacy: compared to ritanserin
T1 construct: expressed in transfected cells; host or cells: NIH3T3 (mouse fibroblasts), pSI expression vector
T1 sequence (P28223 whole entry): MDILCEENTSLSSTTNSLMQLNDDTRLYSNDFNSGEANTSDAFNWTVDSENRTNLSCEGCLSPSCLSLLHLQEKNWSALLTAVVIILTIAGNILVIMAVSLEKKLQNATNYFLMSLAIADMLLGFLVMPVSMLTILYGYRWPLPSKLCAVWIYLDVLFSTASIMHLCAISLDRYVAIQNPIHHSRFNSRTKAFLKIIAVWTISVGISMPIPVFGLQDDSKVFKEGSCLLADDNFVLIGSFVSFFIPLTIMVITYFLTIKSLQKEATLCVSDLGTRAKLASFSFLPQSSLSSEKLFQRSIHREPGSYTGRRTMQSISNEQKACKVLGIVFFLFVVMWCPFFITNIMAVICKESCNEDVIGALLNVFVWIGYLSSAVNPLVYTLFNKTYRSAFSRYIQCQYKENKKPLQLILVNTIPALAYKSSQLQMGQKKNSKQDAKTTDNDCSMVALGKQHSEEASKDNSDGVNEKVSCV
Method: Briefly, NIH3T3 cells were grown in 96 well tissue culture plates to 70-80% confluence. Cells were transfected for 12-16 hours with plasmid DNAs using superfect (Qiagen Inc.) as per manufacture's protocols. R-SAT's were generally performed with 50 ng/well of receptor and 20 ng/well of Beta-galactosidase plasmid DNA. […] Large-scale transfections, cells were transfected for 12-16 hours, then trypsinized and frozen in DMSO. Frozen cells were later thawed, plated at 10,000-40,000 cells per well of a 96 well plate that contained drug. With both methods, cells were then grown in a humidified atmosphere with 5% ambient CO2 for five days. Media was then removed from the plates and marker gene activity was measured by the addition of the beta-galactosidase substrate ONPG (in PBS with 5% NP-40). […] All data were analyzed using the computer program XLFit (IDBSm).

[2] = tested on: DOI-induced head twitches in mice; experiment: Observation for head twitches in DOI-treated mice; assay type: in vivo; settings: for MED (minimum effective dose in vivo): statistically significant reduction in head twitching score, DOI-treated mice, 0.1-30 mg/kg subcutaneous injection
Excerpt: as §1
Mice were treated with 2.5 mg/kg DOI i.p. Five min later, mice were treated with AC-90179 s.c. and placed into activity cages. Ten min later, mice were observed using a repeated sampling technique. […] Each dose combination was tested in a separate group of animals (n=8) and the experimenter was blind to drug conditions. Head twitch scores were averaged followed by analysis of variance (ANOVA) and post-hoc Dunnett's t-test comparisons.
The effect of various compounds on head twitch behavior in mice treated with DOI was observed as described in Example 139. Animals received 0.1-30 mg/kg of the compound indicated via subcutaneous injection. MED indicates the minimum effective dose at which a statistically significant reduction in head twitching score (described above) was observed. MED=minimum effective dose in vivo.

[3] = tested on: acoustic startle and prepulse inhibition in rats; experiment: Startle testing, prepulse inhibition (PPI) in rats; assay type: in vivo
Excerpt: as §1
Rats were tested and groups (n=10) matched for levels of startle reactivity and prepulse inhibition (PPI; see Mansbach et al., (1988) Psychopharmacology 94:507-14). Two days later, test sessions started and consisted of a 5-min acclimation period with a constant background noise (65 dB), followed by 60 presentations of acoustic stimuli to measure acoustic startle responses. The 60 trials consisted of: twenty two 40-ms presentations of a 120 dB broadband pulse, ten 20-ms presentations of each prepulse intensity (68, 71, 77 dB) 100 ms prior to a 40-msec presentation of a 120 dB broadband pulse, and 8 NOSTIM trials in which no stimuli were delivered in order to assess general motor activation in the rats. Thirty min before testing, rats were treated with sterile water (s.c.), risperidone (1.0 mg/kg, i.p.), or AC-90179 (s.c.). Five min later, rats were administered DOI (0.5 mg/kg, s.c.) or 0.9% saline (s.c.). One-week later, rats were administered the same pretreatment drug or vehicle and crossed over to receive the treatment opposite to that they received the previous week. Startle magnitudes and percent PPI for the three prepulse intensities were calculated as described elsewhere (Bakshi, et al., (1994) J. Pharmacol. Exp. Ther. 271:787-94) and ANOVAs with repeated measures performed.

[4] = mice, DOI 2.5 mg/kg i.p., 0.1-30 mg/kg, s.c., 10 min

C[C@]12N[C@H](Cc3ccccc31)c1ccccc12 [Dizocilpine, dizocilpine, reference compound]
distance traveled (average) ([1]; 0.3 mg/kg): 2625 cm

Cc1ccc(CN(C(=O)Cc2ccc(N(C)C)cc2)C2CCN(C)CC2)cc1 [Compound 57MBT70-6D, N-((4-methylphenyl)methyl)-N-(1-methylpiperidin-4-yl)-2-(4-(N,N-dimethylamino)phenyl)acetamide hydrochloride]
IC50 (5-HT2A receptor; Table 4 of Example 137): 10 nM

N-(2-Phenylethyl)-N-(piperidin-4-yl)-4-methoxyphenylmethylacetamide [Compound 26HCH80-2]
pIC50 (average) (5-HT2A receptor; Table 1): 7.78
Efficacy (average) (5-HT2A receptor; percent maximal repression compared to ritanserin, Table 1): 89%

C[C@H](N)Cc1ccccc1 [d-amphetamine, reference compound]
distance traveled (average) ([1]; 3.0 mg/kg): 3367 cm

COc1ccc(CC(=O)N(Cc2ccc(Cl)cc2)C2CCN(C(C)C)CC2)cc1 [Compound 42ELH79, 2-(4-Methoxyphenyl)-N-(4-chlorbenzyl)-N-(1-isopropylpiperidin-4-yl) acetamide]
MED (minimum effective dose in vivo) [2]: ≦10 mg/kg
pIC50 (5-HT2A receptor; Table 4 of Example 137): 8.5
Percent Efficacy (5-HT2A receptor; Table 4 of Example 137): 110%

CCN1CCC(N(Cc2ccc(Cl)cc2)C(=O)Cc2ccc(OC)cc2)CC1 [Compound 42ELH85, 2-(4-Methoxyphenyl)-N-(4-chlorbenzyl)-N-(1-ethylpiperidin-4-yl)acetamide]
MED (minimum effective dose in vivo) [2]: ≦10 mg/kg
Percent Efficacy (5-HT2A receptor; Table 4 of Example 137): 118%

COc1ccc(CC(=O)N(Cc2ccc(C)cc2)C2CCN(C)CC2)cc1 [Compound 50ELH27, 2-(4-Methoxyphenyl)-N-(4-methylbenzyl)-N-(1-methylpiperidin-4-yl)acetamide]
effect on DOI-induced head-twitches [2, 4]: dose-related decrease
minimum effective dose against DOI-induced head-twitches [2, 4]: 1 mg/kg
effect on head twitch behavior at higher doses ([2]; mice, DOI 2.5 mg/kg i.p., higher doses, s.c.): completely eliminating head twitch behavior
MED (minimum effective dose in vivo) [2]: 1 mg/kg
effect on startle magnitude ([3]; rats, 3-way repeated measures ANOVA): significant effect of pretreatment
restoration of PPI in DOI-treated rats ([3]; rats, DOI 0.5 mg/kg s.c., AC-90179 s.c., risperidone 1.0 mg/kg i.p.): effective in restoring this disruption especially at the higher doses; also recorded: significant effects
effect on PPI on its own ([3]; saline (vehicle)-treated rats, AC-90179 s.c., risperidone 1.0 mg/kg i.p.): did not affect PPI on its own; also recorded: no effect
effect on hyperactivity induced by dizocilpine ([1]; 0.3-10 mg/kg, s.c., 10 min, dizocilpine 0.3 mg/kg i.p.): attenuated
dose that reduced spontaneous locomotor activity ([1]; compound alone, s.c., only at the highest dose tested): 30 mg/kg
minimum effective dose against dizocilpine ([1]; hyperactivity induced by dizocilpine 0.3 mg/kg i.p., s.c.): 1 mg/kg

COc1ccc(CC(=O)N(Cc2ccc(Cl)cc2)C2CCN(C3CCCC3)CC2)cc1 [Compound 42ELH91, 2-(4-Methoxyphenyl)-N-(4-chlorbenzyl)-N-(1-cyclopentylpiperidin-4-yl)acetamide]
MED (minimum effective dose in vivo) [2]: >10 mg/kg
Percent Efficacy (5-HT2A receptor; Table 4 of Example 137): 108%
